# Data from PubChem BioAssay (NCI).
#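 Dose response: 5 concentrations. Exposure: 48 h. Format: 96-well plates. Endpoint: linear interpolation; highest concentration if not reached. GI50: concentration for 50% inhibition of growth. TGI: concentration producing complete growth inhibition.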 Where a SMILES comes first, the peptide text is derived from it. [ ]: non-standard residue; d: D form. The star is where a group is joined. ξ: configuration not given here. dIva = CC[C@@](C)(N)C(=O)O; Aib = CC(C)(N)C(=O)O; ξP = O=C(O)C1CCCN1; βAla = NCCC(=O)O; X5 = OCN*
# Experiments:
# Assay in all cases: growth of human tumour cells (NCI), 48 h
# M14 melanoma = test system: M14 melanoma
# 786-0 renal = test system: 786-0 renal
# HS 578T breast = test system: HS 578T breast
# EKVX NSCLC = test system: EKVX NSCLC
# BT-549 breast = test system: BT-549 breast
# TK-10 renal = test system: TK-10 renal
# MOLT-4 leukemia = test system: MOLT-4 leukemia
# OVCAR-3 ovarian = test system: OVCAR-3 ovarian
# RXF 393 renal = test system: RXF 393 renal
# HOP-92 NSCLC = test system: HOP-92 NSCLC
SMILES,GI50 (M14 melanoma) [µM],TGI (M14 melanoma) [µM],GI50 (786-0 renal) [µM],TGI (786-0 renal) [µM],GI50 (HS 578T breast) [µM],TGI (HS 578T breast) [µM],GI50 (EKVX NSCLC) [µM],TGI (EKVX NSCLC) [µM],GI50 (BT-549 breast) [µM],TGI (BT-549 breast) [µM],GI50 (TK-10 renal) [µM],TGI (TK-10 renal) [µM],GI50 (MOLT-4 leukemia) [µM],TGI (MOLT-4 leukemia) [µM],GI50 (OVCAR-3 ovarian) [µM],TGI (OVCAR-3 ovarian) [µM],GI50 (RXF 393 renal) [µM],TGI (RXF 393 renal) [µM],TGI (HOP-92 NSCLC) [µM],GI50 (HOP-92 NSCLC) [µM]
CC[C@@](C)(NC(=O)[C@H](C)NC(=O)CCNC(=O)C(C)(C)NC(=O)[C@H](C)NC(=O)[C@@H]1CCCN1C(=O)[C@@](C)(CC)NC(=O)[C@H](Cc1ccccc1)NC(=O)C1CCCN1C(=O)C(C)(C)NC(=O)C1CCCN1C(=O)C(C)(C)NC(C)=O)C(=O)NCCC(=O)N[C@@H](CC(C)C)C(=O)NC(C)(C)C(=O)NCCC(=O)N[C@@H](CC(C)C)C(=O)NC(C)(C)C(=O)NC(C)(C)C(=O)N[C@@H](CC(C)C)C(=O)NCCC(=O)NCO (stereo partly specified) (Ac-[Aib][ξP][Aib][ξP]F[dIva]PA[Aib][βAla]A[dIva][βAla]L[Aib][βAla]L[Aib][Aib]L[βAla]-X5),0.188,0.391,0.203,0.414,0.248,0.642,0.0661,0.275,0.0699,0.266,0.153,0.353,0.306,0.645,0.144,0.353,0.221,0.436,–,–
CC(=O)N1CCN(C=S)CC1,–,> 100,–,> 100,–,–,–,> 100,–,–,–,> 100,–,> 100,–,> 100,–,> 100,> 100,–
CCN1C(=O)N(CC)C2C1NN=c1s/c(=C\c3cnc(C)n3C)c(=O)n12 (stereo unspecified),–,–,6.54,> 100,–,–,3.65,> 100,3.66,90.9,7.19,> 100,3.24,> 100,0.593,3.41,1.2,5.38,96.1,4.85
N#CC12CC3(CCC1CCC1(C2)OCCO1)OCCO3 (stereo unspecified),–,> 100,–,> 100,–,–,–,> 100,–,–,–,> 100,–,> 100,–,> 100,–,> 100,> 100,–
CCC12C=CCN3CCC4(C(=C(C(=O)OC)C1)Nc1ccccc14)[C@H]32 (stereo partly specified),–,50.8,–,82,–,–,–,> 100,–,–,–,> 100,–,93,–,> 100,–,56.7,87.7,–
CC(=O)Nc1ccccc1S(=O)c1ccccc1 (stereo unspecified),–,> 100,–,> 100,–,–,–,> 100,–,–,–,> 100,–,> 100,–,> 100,–,> 100,> 100,–
N#CC(CC(=O)O)=C(c1ccccc1)c1ccccc1,–,> 100,–,> 100,–,> 100,–,> 100,–,> 100,–,> 100,–,–,–,> 100,–,–,> 100,–
Nc1ncnc2c1ncn2COC/C=C/I,–,> 100,–,> 100,–,–,–,> 100,–,–,–,> 100,–,> 100,–,> 100,–,> 100,> 100,–
C=C1CC(CC(=O)C(C)CC2CC(=C)C(=O)O2)OC1=O (stereo unspecified),–,30,–,43.3,–,–,–,> 100,–,–,–,33.9,–,29.7,–,37,–,37.9,32.1,–
COc1ccc(S(=O)(=O)N/N=C/CN2C(=O)c3ccccc3C2=O)cc1,–,> 100,–,> 100,–,–,–,> 100,–,–,–,–,–,> 100,–,–,–,> 100,–,–
CCCCCC/C(CC(=O)CCC(=O)NCCc1ccccc1)=N\NC(=O)c1ccc2ccccc2c1O,–,> 100,–,> 100,–,–,–,> 100,–,–,–,> 100,–,56.5,–,> 100,–,> 100,> 100,–
ClCCCN1CCCCC1CCl (stereo unspecified),–,> 100,–,> 100,–,–,–,–,–,–,–,> 100,–,> 100,–,> 100,–,> 100,> 100,–
COc1ccc(-c2cc(=O)c3cccnc3[nH]2)cc1,–,95.6,56.5,> 100,–,> 100,–,> 100,–,> 100,–,> 100,–,> 100,29.9,> 100,–,> 100,–,–
N#CC1([N+](=O)[O-])C=C1c1ccccc1 (stereo unspecified),–,> 100,–,> 100,–,–,–,> 100,–,–,–,> 100,–,> 100,–,> 100,–,–,–,–
Nc1cc(N)c2nc(-c3ccccc3)c(Oc3ccc(Cl)c(Cl)c3)nc2c1,14.1,70.3,19.4,41.2,10.6,33.7,2.16,8.35,–,–,17.6,38,6.28,> 100,10.8,26.9,25.2,85.4,–,–
N#CCCn1c(CCC(=O)Nc2ccc(Cl)cc2Cl)n[nH]c1=S,–,> 100,–,> 100,–,–,–,–,–,–,–,> 100,–,> 100,–,> 100,–,> 100,> 100,–
NC(C(=O)O)c1ccc(C(=O)O)cc1 (stereo unspecified),–,> 100,–,> 100,–,–,–,> 100,–,–,–,> 100,–,> 100,–,> 100,–,> 100,–,–
CC1=C(C(=O)NCc2ccccc2)C(c2ccccc2O)C(C(=O)NCc2ccccc2)=C(C)N1,–,32.4,–,33.7,–,–,–,45.6,–,–,–,34,–,> 100,–,31.9,–,34.4,48.7,–
CC(=O)CC(=O)ON(C)C(=O)Cc1ccccc1,–,> 100,–,> 100,–,–,–,–,–,–,–,> 100,–,> 100,–,> 100,–,> 100,> 100,–
C[C@H](CCCOS(C)(=O)=O)[C@H]1CC[C@H]2[C@@H]3CC[C@@H]4C[C@H](OS(C)(=O)=O)CC[C@]4(C)[C@H]3CC[C@]12C,706,> 2500,523,–,423,–,865,> 2500,–,–,607,–,–,–,2170,–,367,> 2500,–,–
CCN(CC)c1ccc(N=C2C=CC(=C(C#N)C#N)c3ccccc32)c(C)c1,–,3.6,–,6.24,–,–,–,18.4,–,–,–,9.58,–,9.63,–,3.82,–,3.24,2.19,–
CCCCCCC(=O)CC(=O)C(=O)Nc1ccccc1C,–,> 100,–,> 100,–,–,–,> 100,–,–,–,> 100,–,> 100,–,> 100,–,> 100,> 100,–
Cc1ccc(NC(=O)CC2C(=O)Nc3ccccc3S2(=O)=O)cc1C (stereo unspecified),–,> 100,–,> 100,–,–,–,> 100,–,–,–,> 100,–,> 100,–,> 100,–,> 100,> 100,–
